The nature of one data set: BBB-PAMPA. Type of data set: in vitro ADME. As to conditions: 50 μM. As to the method: Commercially available Double-Sink PAMPA (Pion® Double sink) assay was performed using a two compartment 96-well microtiter plate and protocols specified by the manufacturer. […] Stock solutions of controls and YIAD002 were dissolved in DMSO (10 mM) and subsequently diluted to 200-fold in pION buffer (pH 7.4) to 50 μM. The donor plate of the PAMPA sandwich was loaded with 50 μM solutions, and after wetting the artificial membrane with BBB lipid solution, the acceptor plate was loaded with acceptor sink buffer. Then, the acceptor plate was placed on the donor plate and incubated at 25°C for 4 h. Compound concentration in the reference, donor, and acceptor plates were measured on a UV plate.
Background: PAMPA measures passive passage across an artificial lipid membrane.

The target in a further data set is T1, CYP 1A2 (Homo sapiens, UniProt P05177).
T1 construct: […]; from tissue; host or cells: human liver microsomes
T1 sequence (P05177 1-516): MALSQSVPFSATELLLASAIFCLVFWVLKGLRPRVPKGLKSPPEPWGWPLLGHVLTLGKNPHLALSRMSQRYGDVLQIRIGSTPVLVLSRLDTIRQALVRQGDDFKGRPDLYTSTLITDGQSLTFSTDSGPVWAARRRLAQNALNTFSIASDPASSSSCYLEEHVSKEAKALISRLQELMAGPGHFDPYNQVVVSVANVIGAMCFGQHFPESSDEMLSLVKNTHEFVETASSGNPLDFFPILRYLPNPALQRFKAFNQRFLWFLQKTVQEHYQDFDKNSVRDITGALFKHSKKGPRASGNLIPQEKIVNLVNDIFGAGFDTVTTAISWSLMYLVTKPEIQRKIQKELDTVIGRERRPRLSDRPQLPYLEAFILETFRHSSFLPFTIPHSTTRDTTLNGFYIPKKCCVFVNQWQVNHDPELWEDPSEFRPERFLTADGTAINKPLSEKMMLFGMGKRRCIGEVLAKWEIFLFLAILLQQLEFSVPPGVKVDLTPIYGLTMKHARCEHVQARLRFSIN
Kind of data set: CYP450 inhibition assay, 1A2. Type of data set: in vitro ADME. As to conditions: YIAD002 10 μM, human liver microsomes; weak or no inhibition; read-out: CYP 1A2 inhibition, IC50 (inhibition criteria). As to the method: (§1) Incubation mixtures for Cytochrome P450s (CYPs) inhibition assay contained human liver microsomes (0.25 mg/ml), 0.1 M phosphate buffer (pH 7.4), 10 μM of YIAD002, and an enzyme substrate cocktail (phenacetin 50 μM, diclofenac 10 μM, S-mephenytoin 100 μM, dextromethorphan 5 μM, and midazolam 2.5 μM). The mixture was pre-incubated at 37°C for 5 min and 1 mM NAPDH was added to initiate reactions. After 15 min of incubation, acetonitrile with terfenadine was added to stop reactions and microsomal solutions were centrifuged at 14,000 rpm at 4°C for 5 min. For LC-MS/MS analysis, supernatants were injected on a Kinetex C18 column (2.1 × 100 mm, 2.6 μm particle size, Phenomenex, USA). The composition of the mobile phase was 0.1% formic acid in water (A) and 0.1% formic acid in acetonitrile (B).

A further data set concerns the target T2, CYP 3A4 (Homo sapiens, UniProt P08684).
T2 construct: contained human liver microsomes (0.25 mg/ml); from tissue; host or cells: human liver microsomes
As to the kind of experiment: CYP450 inhibition assay, 3A4. The format is in vitro ADME. As to conditions: YIAD002 10 μM, human liver microsomes; weak or no inhibition; read-out: CYP 3A4 inhibition, IC50 (inhibition criteria). As to the method:
as §1

Data set [1] can be described thus: Microsomal stability, rat. As to conditions: 1 μM, 30 min, 37°C. The format is in vitro ADME. The protocol: (§2) To evaluate the rate of drug metabolism, we tested YIAD002 stability in liver microsomes of human, rat, and mouse. Microsomal concentration was 0.5 mg/ml in 0.1 M phosphate buffer (pH 7.4). 1 μM of YIAD002 was added to microsome solutions and was prewarmed at 37°C for 5 min. NADPH-regenerating solution was added to microsomes and incubated at 37°C for 30 min. At the end of incubation, acetonitrile with chlorpropamide was added to stop reactions and microsomal solutions were centrifuged at 14,000 rpm at 4°C for 5 min. For LC-MS/MS analysis, supernatants were injected on a Kinetex C18 column (2.1 × 100 mm, 2.6 μm particle size, Phenomenex, USA). The composition of the mobile phase was 0.1% formic acid in water (A) and 0.1% formic acid in acetonitrile (B).

Data set [2] is described as follows: Microsomal stability, mouse. The format is in vitro ADME. As to conditions: 1 μM, 30 min, 37°C. As to the method: as §2
The next data set in a line: Plasma stability, human. The format is in vitro ADME. As to conditions: 10 μM, 37°C, vs 0 min. The protocol:
To assess the plasma stability of YIAD002, YIAD002 stock was dissolved at a concentration of […] in DMSO. 5 μL of YIAD002 stock was added to 195 μL of human plasma or 195 μL of rat plasma and incubated at 37°C for the following time points: 0, 30, and 120 min. At the end of incubation, acetonitrile with chlorpropamide was added to stop reactions. The solutions were centrifuged at 14,000 rpm at 4°C for 5 min and the supernatant was analyzed with LC-MS/MS. High performance liquid chromatography was carried out on a Kinetex C18 column (2.1 × 100 mm, 2.6 μm particle size, Phenomenex, USA). The composition of the mobile phase was 0.1% formic acid in water (A) and 0.1% formic acid in acetonitrile (B).

In the next data set the test system is APP/PS1 mice. Kind of data set: 6E10 immunohistochemical staining of amyloid plaques in APP/PS1 mice. As to conditions: YIAD002-treated APP/PS1 mice vs vehicle. The format is in vivo, mouse. The protocol:
To test whether YIAD002 could reduce amyloid plaques in another AD mouse model, APP/PS1 transgenic mice (n = 24) and wildtype mice (n = 5) were assessed at the age of 7.5 months. YIAD002 was dissolved in PBS (0.5% methylcellulose) at two different concentrations (10 and 30 mg/kg/day) and administrated daily to APP/PS1 mice (n = 8 for each group) via oral gavage for 8 weeks. As a control, vehicle solutions were orally administrated to littermate APP/PS1 mice (n = 8) and wildtype mice (n = 5).
Formalin-fixed APP/PS1 mice brains were infiltrated with paraffin using a tissue processor (LEICA ASP300S, Germany). Blocks of tissues were produced with a tissue embedding center and sectioned into thin slices (4 μm), which were mounted onto glass slides. To prepare for 6E10 staining, slides were deparaffinized, rehydrated, and blocked with 0.03% H2O2 to remove endogenous peroxidase. For antigen retrieval, slides were boiled in Tris/EDTA solution (pH 9.0) using a pressure cooker. Unspecific binding was blocked through incubation in 4% BSA at RT for 30 min. Slides were immunolabeled with anti-6E10 antibody (1:2000, Novus Biologicals NBP2-62566) at RT for 1 h and HRP-labeled secondary antibody (Dako K4003) for 30 min and subsequently stained with DAB (3,3′-Diaminobenzidine) and counterstained with Mayer’s hematoxylin. Stained slides were scanned using ZEISS Axio scan.Z1 microscope. Amyloid plaques were quantified using Image-J software (NIH).

Molecules are shown by their SMILES.

From paper PMC9706920, “Aryloxypropanolamine targets amyloid aggregates and reverses Alzheimer-like phenotypes in Alzheimer mouse models” (Alzheimer's Research & Therapy, 2022) come the findings set out here.

As usually defined, the IC50 is the concentration that gives 50% inhibition.

T2 sequence (P08684 whole entry): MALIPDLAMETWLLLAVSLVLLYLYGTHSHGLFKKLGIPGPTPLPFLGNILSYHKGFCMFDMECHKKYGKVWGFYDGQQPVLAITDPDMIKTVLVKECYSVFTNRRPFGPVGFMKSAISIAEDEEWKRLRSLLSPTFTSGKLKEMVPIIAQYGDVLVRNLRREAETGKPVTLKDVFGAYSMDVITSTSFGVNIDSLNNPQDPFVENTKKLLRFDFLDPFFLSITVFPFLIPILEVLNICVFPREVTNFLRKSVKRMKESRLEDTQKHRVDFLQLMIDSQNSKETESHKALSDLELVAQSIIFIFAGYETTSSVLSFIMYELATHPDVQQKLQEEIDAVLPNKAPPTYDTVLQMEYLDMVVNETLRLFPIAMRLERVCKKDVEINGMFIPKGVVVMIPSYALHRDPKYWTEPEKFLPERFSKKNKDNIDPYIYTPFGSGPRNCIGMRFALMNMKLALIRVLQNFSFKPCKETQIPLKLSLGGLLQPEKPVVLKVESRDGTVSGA

As for `CCC(C)(C)c1ccc(OCC(O)CN2CCCC2)c(C(C)(C)CC)c1.Cl` (stereo not shown) [YIAD002, 1-(3-(2,4-Di-tert-pentylphenoxy)-2-hydroxypropyl)pyrrolidin-1-ium chloride], in the data set “BBB-PAMPA” (classification ranges ref 25), the BBB permeability class entry is listed as “high BBB permeability”. Moreover, in the data set “BBB-PAMPA” (PAMPA, pH 7.4, 25°C, 4 h, read-out: Effective permeability coefficient Pe), the Papp at 4 h, 50 μM was 36.8 ×10⁻⁶ cm/s. On CYP 1A2, the IC50 is greater than 10 µM. The 50% inhibitory concentration (IC50) on CYP 3A4 was greater than 10 µM. Also, the “Remaining compound in rat microsomes” value in data set [1] stood at 11.2%. Moreover, in data set [2], the “Remaining compound in mouse microsomes” value stood at 14.2%. The “Compound remaining in human plasma” value in the data set “Plasma stability, human” (30 min) is recorded as 96.3%. In addition, the “Compound remaining in human plasma” value in the data set “Plasma stability, human” (120 min) was determined as 92.6%. In addition, in the data set with APP/PS1 mice, the “Number of plaques, cortex” value is on record as “significantly reduced”; the “Plaque size, hippocampus” value is listed as “significantly reduced”; the “Size of plaques, cortex” value is listed as “significantly reduced”. Also, in the data set with APP/PS1 mice (dose not given), the “Area of 6E10-stained plaques, whole brain” value is “reduced” and the “Number of 6E10-stained plaques, whole brain” value was “reduced”.
